ChEMBL document CHEMBL5346907, “Discovery of a novel oral type Ⅰ CDK8 inhibitor against acute myeloid leukemia” (Eur J Med Chem, 2023)

Legend:
[1] = target: Cyclin-dependent kinase 8 (Homo sapiens, UniProt P49336); experiment: Inhibition of CDK8 (unknown origin) in presence of ATP by ADP-Glo assay
HCT-116 = experiment: Antiproliferative activity against human HCT-116 cells incubated for 48 hrs by CCK8 assay; type: functional
[2] = target: CDK9/cyclin T1 (Homo sapiens) (UniProt O60563+P50750); experiment: Inhibition of CDK9/Cyclin T1 (unknown origin) at 1 uM preincubated for 10 mins followed by substrate addition measured for 60 to 120 mins by HTRF assay relative to control; type: protein-complex assay; settings: time 70-130 min
[3] = target: CDK6/cyclin D1 (Homo sapiens) (UniProt P24385+Q00534); experiment: Inhibition of CDK6/Cyclin D1 (unknown origin) at 1 uM preincubated for 10 mins followed by substrate addition measured for 60 to 120 mins by HTRF assay relative to control; type: protein-complex assay; settings: time 70-130 min
CDK7/Cyclin H/MNAT1 = CDK7/Cyclin H/MNAT1 (Homo sapiens, UniProt P50613); experiment: Inhibition of CDK7/Cyclin H/MAT1 (unknown origin) preincubated for 10 mins followed by substrate addition measured for 60 to 120 mins by HTRF assay; type: protein-complex assay
[4] = target: Cyclin-dependent kinase 2/cyclin E1 (Homo sapiens, UniProt P24941); experiment: Inhibition of CDK2/Cyclin E1 (unknown origin) preincubated for 10 mins followed by substrate addition measured for 60 to 120 mins by HTRF assay; type: protein-complex assay
CDK9/cyclin T1 = CDK9/cyclin T1 (Homo sapiens, UniProt P50750); experiment: Inhibition of CDK9/Cyclin T1 (unknown origin) preincubated for 10 mins followed by substrate addition measured for 60 to 120 mins by HTRF assay; type: protein-complex assay
[5] = target: Ephrin type-B receptor 3 (Homo sapiens) (UniProt P54753); experiment: Inhibition of EPHB3 (unknown origin) at 1 uM preincubated for 10 mins followed by substrate addition measured for 60 to 120 mins by HTRF assay relative to control; settings: time 70-130 min
[6] = target: High affinity nerve growth factor receptor (Homo sapiens) (UniProt P04629); experiment: Inhibition of TRKA (unknown origin) at 1 uM preincubated for 10 mins followed by substrate addition measured for 60 to 120 mins by HTRF assay relative to control; settings: time 70-130 min
[7] = target: Tyrosine-protein kinase BTK (Homo sapiens) (UniProt Q06187); experiment: Inhibition of BTK (unknown origin) at 1 uM preincubated for 10 mins followed by substrate addition measured for 60 to 120 mins by HTRF assay relative to control; settings: time 70-130 min
[8] = target: Hepatocyte growth factor receptor (Homo sapiens) (UniProt P08581); experiment: Inhibition of MET (unknown origin) at 1 uM preincubated for 10 mins followed by substrate addition measured for 60 to 120 mins by HTRF assay relative to control; settings: time 70-130 min
[9] = target: Mast/stem cell growth factor receptor Kit (Homo sapiens) (UniProt P10721); experiment: Inhibition of KIT (unknown origin) at 1 uM preincubated for 10 mins followed by substrate addition measured for 60 to 120 mins by HTRF assay relative to control; settings: time 70-130 min
[10] = target: Ephrin type-A receptor 7 (Homo sapiens) (UniProt Q15375); experiment: Inhibition of EPHA7 (unknown origin) at 1 uM preincubated for 10 mins followed by substrate addition measured for 60 to 120 mins by HTRF assay relative to control; settings: time 70-130 min
HL-60 [11] = experiment: Induction of apoptosis in human HL-60 cells assessed as early apoptosis cells at 5 uM incubated for 48 hrs by annexin V-FITC/PI staining based flow cytometry (reference value: 2.08 %); type: functional
HL-60 [12] = experiment: Induction of apoptosis in human HL-60 cells assessed as necrotic cells at 5 uM incubated for 48 hrs by annexin V-FITC/PI staining based flow cytometry (reference value: 0.26 %); type: functional
[13] = MRT in Sprague-Dawley rat at 10 mg/kg, po; type: ADME, organism-based; settings: in vivo
[14] = Bioavailability in Sprague-Dawley rat at 10 mg/kg, po; type: ADME, organism-based; settings: in vivo
[15] = MRT in Sprague-Dawley rat at 2 mg/kg, iv; type: ADME, organism-based; settings: in vivo
[16] = Clearance in Sprague-Dawley rat at 2 mg/kg, iv; type: ADME, organism-based; settings: in vivo

Chain of CDK7/Cyclin H/MNAT1 (P51946 whole entry): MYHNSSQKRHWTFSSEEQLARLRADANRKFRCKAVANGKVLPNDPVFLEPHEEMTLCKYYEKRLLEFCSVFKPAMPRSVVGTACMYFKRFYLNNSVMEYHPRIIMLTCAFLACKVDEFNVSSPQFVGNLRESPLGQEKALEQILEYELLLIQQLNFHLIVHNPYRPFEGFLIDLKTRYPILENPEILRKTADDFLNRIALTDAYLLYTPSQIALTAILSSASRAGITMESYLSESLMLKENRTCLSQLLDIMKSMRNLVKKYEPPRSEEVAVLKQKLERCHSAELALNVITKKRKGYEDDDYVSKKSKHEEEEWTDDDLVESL
Chain of CDK7/Cyclin H/MNAT1 (P50613 whole entry): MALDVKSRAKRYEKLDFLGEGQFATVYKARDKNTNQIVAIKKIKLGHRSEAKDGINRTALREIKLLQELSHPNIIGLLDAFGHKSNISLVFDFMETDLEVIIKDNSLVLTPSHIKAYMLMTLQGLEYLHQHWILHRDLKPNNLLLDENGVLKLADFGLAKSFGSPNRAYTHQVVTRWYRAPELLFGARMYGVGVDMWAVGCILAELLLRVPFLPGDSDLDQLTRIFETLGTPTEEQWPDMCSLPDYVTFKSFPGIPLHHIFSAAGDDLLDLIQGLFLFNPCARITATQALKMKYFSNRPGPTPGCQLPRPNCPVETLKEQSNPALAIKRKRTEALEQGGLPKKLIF
Chain of CDK7/Cyclin H/MNAT1 (P51948 whole entry, further chain): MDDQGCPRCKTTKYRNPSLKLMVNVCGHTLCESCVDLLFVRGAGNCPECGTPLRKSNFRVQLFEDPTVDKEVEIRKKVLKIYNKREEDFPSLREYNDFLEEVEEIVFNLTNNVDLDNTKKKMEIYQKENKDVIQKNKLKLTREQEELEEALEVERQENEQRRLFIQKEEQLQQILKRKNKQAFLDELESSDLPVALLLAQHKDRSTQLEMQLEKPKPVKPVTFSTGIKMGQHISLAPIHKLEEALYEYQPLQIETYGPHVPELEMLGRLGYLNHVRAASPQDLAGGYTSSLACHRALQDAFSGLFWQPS
Chain of Ephrin type-B receptor 3 (Homo sapiens) (P54753 whole entry): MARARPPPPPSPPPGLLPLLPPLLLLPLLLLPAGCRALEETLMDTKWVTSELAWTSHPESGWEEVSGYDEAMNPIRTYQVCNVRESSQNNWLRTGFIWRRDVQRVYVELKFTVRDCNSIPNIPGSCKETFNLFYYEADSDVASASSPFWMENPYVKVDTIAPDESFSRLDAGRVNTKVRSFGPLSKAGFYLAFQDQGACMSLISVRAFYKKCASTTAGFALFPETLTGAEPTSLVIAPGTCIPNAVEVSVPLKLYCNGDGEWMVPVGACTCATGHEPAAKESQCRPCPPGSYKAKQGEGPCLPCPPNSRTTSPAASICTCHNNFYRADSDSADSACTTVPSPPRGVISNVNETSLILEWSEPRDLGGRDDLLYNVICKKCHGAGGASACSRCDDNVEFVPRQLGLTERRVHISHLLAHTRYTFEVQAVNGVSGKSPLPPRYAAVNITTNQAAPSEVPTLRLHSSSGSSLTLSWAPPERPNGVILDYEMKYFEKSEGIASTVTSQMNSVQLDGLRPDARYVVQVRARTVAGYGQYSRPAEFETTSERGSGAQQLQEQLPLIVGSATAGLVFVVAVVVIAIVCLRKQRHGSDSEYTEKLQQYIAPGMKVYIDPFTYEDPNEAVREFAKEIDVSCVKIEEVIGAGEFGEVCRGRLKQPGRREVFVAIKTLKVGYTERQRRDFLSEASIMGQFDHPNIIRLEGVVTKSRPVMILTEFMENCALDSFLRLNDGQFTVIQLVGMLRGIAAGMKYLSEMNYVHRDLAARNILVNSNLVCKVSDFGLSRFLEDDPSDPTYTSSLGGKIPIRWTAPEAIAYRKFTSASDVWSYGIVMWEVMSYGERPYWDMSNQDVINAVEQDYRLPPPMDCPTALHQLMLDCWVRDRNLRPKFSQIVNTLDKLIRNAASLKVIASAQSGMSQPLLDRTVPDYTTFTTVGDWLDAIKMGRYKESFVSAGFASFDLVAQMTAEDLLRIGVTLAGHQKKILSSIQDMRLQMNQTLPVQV
Chain of Mast/stem cell growth factor receptor Kit (Homo sapiens) (P10721 whole entry): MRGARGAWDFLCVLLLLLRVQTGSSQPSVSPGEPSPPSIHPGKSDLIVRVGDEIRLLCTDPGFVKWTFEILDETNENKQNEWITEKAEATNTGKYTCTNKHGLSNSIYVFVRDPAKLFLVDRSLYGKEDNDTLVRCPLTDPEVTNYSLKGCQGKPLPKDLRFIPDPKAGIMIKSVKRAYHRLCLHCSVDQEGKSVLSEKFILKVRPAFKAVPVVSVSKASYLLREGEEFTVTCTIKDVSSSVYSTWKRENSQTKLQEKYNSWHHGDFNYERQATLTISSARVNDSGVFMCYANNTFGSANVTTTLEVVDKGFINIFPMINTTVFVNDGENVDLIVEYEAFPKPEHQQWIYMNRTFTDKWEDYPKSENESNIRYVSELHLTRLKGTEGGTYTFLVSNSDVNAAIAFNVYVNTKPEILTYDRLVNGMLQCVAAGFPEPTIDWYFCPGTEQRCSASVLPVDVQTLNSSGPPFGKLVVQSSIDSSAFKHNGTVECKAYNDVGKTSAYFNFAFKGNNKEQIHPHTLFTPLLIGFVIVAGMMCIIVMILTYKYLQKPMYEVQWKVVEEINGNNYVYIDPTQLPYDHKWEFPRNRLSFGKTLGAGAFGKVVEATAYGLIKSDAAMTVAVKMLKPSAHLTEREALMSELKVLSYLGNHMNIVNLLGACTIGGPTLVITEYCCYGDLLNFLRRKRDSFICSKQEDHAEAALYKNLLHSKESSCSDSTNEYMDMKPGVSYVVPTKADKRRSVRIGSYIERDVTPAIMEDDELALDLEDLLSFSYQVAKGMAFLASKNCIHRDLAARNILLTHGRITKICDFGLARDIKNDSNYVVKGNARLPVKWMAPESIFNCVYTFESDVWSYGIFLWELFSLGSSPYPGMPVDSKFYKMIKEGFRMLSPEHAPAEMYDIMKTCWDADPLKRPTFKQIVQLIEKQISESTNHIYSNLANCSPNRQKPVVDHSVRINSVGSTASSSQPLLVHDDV
Chain of Tyrosine-protein kinase BTK (Homo sapiens) (Q06187 whole entry): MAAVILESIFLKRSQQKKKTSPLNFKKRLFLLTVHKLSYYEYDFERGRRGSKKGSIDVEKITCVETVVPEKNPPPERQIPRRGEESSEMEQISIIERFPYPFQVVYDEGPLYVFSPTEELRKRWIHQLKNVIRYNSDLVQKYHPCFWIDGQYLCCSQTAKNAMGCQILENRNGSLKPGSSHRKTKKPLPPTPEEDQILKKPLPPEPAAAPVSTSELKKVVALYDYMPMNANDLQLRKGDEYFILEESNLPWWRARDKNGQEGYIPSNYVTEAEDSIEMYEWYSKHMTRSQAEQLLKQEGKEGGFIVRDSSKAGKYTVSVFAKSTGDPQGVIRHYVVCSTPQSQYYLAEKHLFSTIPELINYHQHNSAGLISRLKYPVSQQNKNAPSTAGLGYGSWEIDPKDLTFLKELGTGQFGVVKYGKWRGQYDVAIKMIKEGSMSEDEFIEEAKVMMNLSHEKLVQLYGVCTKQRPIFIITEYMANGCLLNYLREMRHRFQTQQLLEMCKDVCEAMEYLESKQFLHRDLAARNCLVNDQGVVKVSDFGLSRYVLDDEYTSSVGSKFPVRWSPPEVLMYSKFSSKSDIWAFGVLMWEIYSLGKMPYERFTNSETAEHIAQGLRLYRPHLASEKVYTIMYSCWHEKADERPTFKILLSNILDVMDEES
Chain of High affinity nerve growth factor receptor (Homo sapiens) (P04629 33-796 limits assumed): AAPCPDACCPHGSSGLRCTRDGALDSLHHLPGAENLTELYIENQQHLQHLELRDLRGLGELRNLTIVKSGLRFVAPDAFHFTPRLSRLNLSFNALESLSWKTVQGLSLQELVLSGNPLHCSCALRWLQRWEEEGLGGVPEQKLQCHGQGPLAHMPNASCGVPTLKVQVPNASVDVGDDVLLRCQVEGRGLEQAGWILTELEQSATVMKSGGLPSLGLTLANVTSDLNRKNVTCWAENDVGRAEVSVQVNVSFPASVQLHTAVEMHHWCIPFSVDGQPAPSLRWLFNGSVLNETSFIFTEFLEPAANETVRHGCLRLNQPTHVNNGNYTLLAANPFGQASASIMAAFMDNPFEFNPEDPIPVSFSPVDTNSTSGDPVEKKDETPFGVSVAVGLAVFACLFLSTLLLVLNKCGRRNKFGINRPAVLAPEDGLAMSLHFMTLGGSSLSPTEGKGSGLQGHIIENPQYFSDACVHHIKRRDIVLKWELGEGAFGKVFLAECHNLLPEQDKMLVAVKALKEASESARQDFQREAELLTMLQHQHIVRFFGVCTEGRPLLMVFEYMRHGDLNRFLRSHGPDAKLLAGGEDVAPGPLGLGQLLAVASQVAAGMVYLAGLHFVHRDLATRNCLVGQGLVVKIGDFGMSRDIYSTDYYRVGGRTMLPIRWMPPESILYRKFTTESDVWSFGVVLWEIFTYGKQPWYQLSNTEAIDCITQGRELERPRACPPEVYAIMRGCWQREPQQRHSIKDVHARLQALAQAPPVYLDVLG
Chain of Cyclin-dependent kinase 8 (P49336 whole entry): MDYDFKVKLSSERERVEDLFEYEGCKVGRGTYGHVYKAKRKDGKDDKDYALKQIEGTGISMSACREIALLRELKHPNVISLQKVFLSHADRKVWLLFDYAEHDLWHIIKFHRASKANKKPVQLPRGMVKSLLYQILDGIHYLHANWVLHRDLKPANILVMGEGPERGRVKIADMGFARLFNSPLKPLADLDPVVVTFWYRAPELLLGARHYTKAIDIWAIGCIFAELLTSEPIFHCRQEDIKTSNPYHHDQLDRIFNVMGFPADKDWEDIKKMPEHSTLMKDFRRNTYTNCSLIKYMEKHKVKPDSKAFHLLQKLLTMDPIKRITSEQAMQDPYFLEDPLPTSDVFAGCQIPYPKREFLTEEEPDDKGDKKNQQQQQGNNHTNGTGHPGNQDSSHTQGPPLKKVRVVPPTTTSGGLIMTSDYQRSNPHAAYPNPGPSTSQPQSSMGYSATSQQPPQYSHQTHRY

## NC(=O)c1cccc(-c2cnc3[nH]ccc3c2)c1
[1]
  IC50: 0.0519 µM
HCT-116
  GI50: > 50 µM
[2]
  inhibition: 7.41%
[3]
  inhibition: 0.37%
CDK7/Cyclin H/MNAT1
  IC50: 0.428 µM
[4]
  IC50: > 1 µM
CDK9/cyclin T1
  IC50: 0.711 µM
[5]
  inhibition: 13.5%
[6]
  inhibition: 13.3%
[7]
  inhibition: 5.27%
[8]
  inhibition: 0%
[9]
  inhibition: 0%
[10]
  inhibition: 0%
HL-60 [11]
  Activity: 22.4%
HL-60 [12]
  Activity: 8.48%
[13]
  MRT: 2.47 h
[14]
  bioavailability: 28%
[15]
  MRT: 1.5 h
[16]
  clearance: 118 mL/min/kg
